According to US20260231947A1, “IMPROVED BIOCIDE COMPOSITIONS” (Solugen, Inc., priority 2021, published 2026):
≈ marks a conversion by molar mass, not a printed value. Read-outs that look alike come from different tables or passages of the source.

Columns and labels:
Wild Strain APB = test: MIC, microtiter plate, wild strain acid producing bacteria; type: cell-based
Protocol: (§1) The ability of an BF to inhibit microorganisms was investigated. Specifically, three bacteria types were tested to compare the MIC of a biocide, a biochelant and IBFs of the present disclosure. The bacteria types utilized were isolated from produced water from the Marcellus shale formation, and identified as (i) general aerobic bacteria identified as Pseudomonas aeruginosa and Enterobacter aggolomerans (ii) Wild strain sulfate reducing bacteria and (iii) acid producing bacteria. General aerobic bacteria aid in the formation of biofilms. Most of these bacteria will be found either floating freely in water (planktonic organisms) or will be attached to various surfaces (sessile organisms). Wild strain Sulfate Reducing Bacteria and Acid Producing Bacteria isolated from the produced fluid was also used. Wild strain Sulfate Reducing Bacteria (WSRB) are the most common anaerobic organisms found in the oil and gas industry. WSRB are an issue as they will reduce sulfate into sulfides which can turn into hydrogen sulfide, souring the fluid in the oil and gas well.
(§2) The bacteria tested were placed in a microtiter plate, where a high throughput test was performed to determine MIC (minimum inhibitor concentration). […] The BE contained 1:1 biocide:biochelant each at 50 ppm.

[1] = tested on: bacteria isolated from produced water from the Marcellus shale formation; test: MIC, Example 1, maximum reduction over the three bacteria types; type: cell-based; settings: biocide used in conjunction with biochelants, versus biocide alone
Protocol: as §1, §2

[2] = tested on: Wild Strain General Bacteria; test: MIC, microtiter plate, general aerobic bacteria from produced water; type: cell-based, Pseudomonas aeruginosa and Enterobacter aggolomerans
Protocol: as §1, §2

[3] = tested on: General Wild Strain Bacteria; test: MIC, Example 2, TTPC and bleach; type: cell-based
Excerpt: The biocides used were tributyl tetradecyl phosphonium chloride (TTPC, BELLACIDE 350) and household bleach.

Wild Strain SRB = test: MIC, microtiter plate, wild strain sulfate reducing bacteria; type: cell-based
Protocol: as §1, §2

Staphylococcus aureus = test: MIC, Example 3, quaternary ammonium biocides
Excerpt: (§3) The ability of an IBF to inhibit microorganisms was investigated. The biocides used as components of the IBF were quaternary ammonium compounds. […] The bacterial strains tested were Pseudomonas aeruginosa, Staphylococcus aureus, Escherichia coli and Klebsiella pneumoniae.

Escherichia coli = test: MIC, Example 3, quaternary ammonium biocides
Excerpt: as §3

Pseudomonas aeruginosa = test: MIC, Example 3, quaternary ammonium biocides
Excerpt: as §3

Klebsiella pneumoniae = test: MIC, Example 3, quaternary ammonium biocides
Excerpt: as §3

[4] = Wild Strain APB, IBF 1:1 biocide:biochelant, read-out: MIC
[5] = Wild Strain General Bacteria, IBF 1:1 biocide:biochelant, read-out: MIC
[6] = General Wild Strain Bacteria, read-out: MIC

Row | Molecule | MIC (Wild Strain APB; [4]) | maximum MIC reduction [1] | MIC [2, 5] | MIC [3, 6] | MIC (Staphylococcus aureus) | MIC (Escherichia coli) | MIC (Pseudomonas aeruginosa) | MIC (Klebsiella pneumoniae) | further results
1 | O=[N+]([O-])C(Br)(CO)CO [10% BRONOPOL, 2-bromo-2-nitro-1,3-propanediol] | 62.5 µg/mL (≈ 0.313 mM) | 98% | 125 µg/mL (≈ 0.625 mM) | – | – | – | – | – | –
2 | O=CCCCC=O [50% Glut, glutaraldehyde] | 500 µg/mL (≈ 4.99 mM) | – | 1000 µg/mL (≈ 9.99 mM) | – | – | – | – | – | –
3 | CCCCCCCCCCCCCC[P+](CCCC)(CCCC)CCCC.[Cl-] [Bellacide 350 (TTPC), tributyl tetradecyl phosphonium chloride] | – | – | – | 500 µg/mL | – | – | – | – | MIC ([3]; General Wild Strain Bacteria, with biochelant, read-out: MIC of the biocide as a component of an IBF): 15.6 µg/mL
4 | O=C(O)[C@H](O)[C@@H](O)[C@H](O)[C@H](O)CO [G050, gluconic acid] | – | – | – | – | 5000 µg/mL (≈ 25.5 mM) | 5000 µg/mL (≈ 25.5 mM) | 5000 µg/mL (≈ 25.5 mM) | 5000 µg/mL (≈ 25.5 mM) | MIC (Wild Strain SRB): 312 µg/mL (≈ 1.59 mM); MIC [3]: 10000 µg/mL (≈ 51 mM); MIC (Wild Strain APB): 625 µg/mL (≈ 3.19 mM); MIC [2]: 10000 µg/mL (≈ 51 mM)
5 | O=C(O)[C@@H](O)[C@@H](O)[C@H](O)[C@@H](O)C(=O)O [GA50, glucaric acid] | 625 µg/mL (≈ 2.97 mM) | – | 2500 µg/mL (≈ 11.9 mM) | 2500 µg/mL (≈ 11.9 mM) | 5000 µg/mL (≈ 23.8 mM) | 625 µg/mL (≈ 2.97 mM) | 1250 µg/mL (≈ 5.95 mM) | 1250 µg/mL (≈ 5.95 mM) | –
6 | tetrakis hydroxymethyl-phosphonium sulfate [75% THPS] | – | 97% | – | – | – | – | – | – | MIC (Wild Strain SRB; Wild Strain SRB, IBF 1:1 biocide:biochelant): 1000 ppm; MIC (Wild Strain APB; Wild Strain APB, IBF 1:1 biocide:biochelant): 62.5 ppm; MIC ([2]; Wild Strain General Bacteria, IBF 1:1 biocide:biochelant): 1000 ppm
